# Measured values reported in article PMC11345752, “In Situ Biofilm Affinity-Based Protein Profiling Identifies the Streptococcal Hydrolase GbpB as the Target of a Carolacton-Inspired Chemical Probe” (Journal of the American Chemical Society, 2024).
# Target: T1, FolD (Escherichia coli, UniProt P24186)
# T1 construct: purified E. coli FolD
# Assay: dehydrogenase assay with purified FolD
# Assay type: biochemical
compound,measurement,value
COC(CC(=O)O)C(C)C(=O)C(C)/C=C(\C)C1OC(=O)C(O)C(O)C=CC(C)CCCC1C (stereo not shown) [carolacton],IC50,94 nM
